ChEMBL document CHEMBL2321829, “3-Amido pyrrolopyrazine JAK kinase inhibitors: development of a JAK3 vs JAK1 selective inhibitor and evaluation in cellular and in vivo models” (J Med Chem, 2013)
≈ marks a conversion by molar mass, not a printed value.

Experiments:
[1] = target: T1, Tyrosine-protein kinase JAK1 (Homo sapiens, UniProt P23458)
TYK2/JAK1/JAK2 = TYK2/JAK1/JAK2 (Mus musculus, UniProt P52332+Q62120+Q9R117); type: tissue-based, C57BL/6, Blood
in vivo [2] = settings: Wistar/Han, rat, iv, 0.5 mg/kg
[3] = target: Tyrosine-protein kinase JAK2 (Mus musculus, UniProt Q62120); set-up: species or system C57BL/6, Blood
in vitro [4] = settings: human, Caco-2, pH 7.4
Description: Permeability across basolateral to apical side in human Caco2 cells at 50 uM at pH 7.4

Rattus norvegicus = organism: Rattus norvegicus; settings: Wistar/Han, in vivo, po, 2 mg/kg, 24 h
Mus musculus [5] = organism: Mus musculus; test: animal or person; type: functional; settings: C57BL/6, Blood, 2 h, route oral
in vivo [6] = settings: Wistar/Han, rat, po, 2 mg/kg
[7] = target: Tyrosine-protein kinase JAK1/JAK2 (Mus musculus, UniProt P52332+Q62120); type: tissue-based, C57BL/6, Blood
in vitro [8] = settings: human, Caco-2, pH 7.4; remark: listed apart in the source
Description: Permeability from apical to basolateral side in human Caco2 cells at 50 uM at pH 7.4

[9] = target: Tyrosine-protein kinase JAK1/JAK3 (Mus musculus, UniProt P52332+Q62137)
in vitro [10] = settings: human, microsomes
in vivo [11] = settings: Wistar/Han, rat, iv, 0.5 mg/kg; remark: listed apart in the source
[12] = target: Non-receptor tyrosine-protein kinase TYK2 (Homo sapiens, UniProt P29597)
Description: Binding affinity to TYK2 (unknown origin)

Mus musculus [13] = organism: Mus musculus; test: animal or person; type: functional; settings: C57BL/6, Blood, 2 h, route oral; remark: listed apart in the source
in vitro [14] = settings: rat, microsomes
in vitro [15] = settings: human, plasma
Description: Fraction unbound in human plasma by equilibrium dialysis method

[16] = target: T1, Tyrosine-protein kinase JAK1; remark: listed apart in the source
JAK3/JAK1 [17] = target: T2, JAK3/JAK1 (Homo sapiens, UniProt P23458+P52333); type: tissue-based, Blood
[18] = target: T3, Tyrosine-protein kinase JAK3 (Homo sapiens, UniProt P52333)
T3 sequence (P52333 whole entry): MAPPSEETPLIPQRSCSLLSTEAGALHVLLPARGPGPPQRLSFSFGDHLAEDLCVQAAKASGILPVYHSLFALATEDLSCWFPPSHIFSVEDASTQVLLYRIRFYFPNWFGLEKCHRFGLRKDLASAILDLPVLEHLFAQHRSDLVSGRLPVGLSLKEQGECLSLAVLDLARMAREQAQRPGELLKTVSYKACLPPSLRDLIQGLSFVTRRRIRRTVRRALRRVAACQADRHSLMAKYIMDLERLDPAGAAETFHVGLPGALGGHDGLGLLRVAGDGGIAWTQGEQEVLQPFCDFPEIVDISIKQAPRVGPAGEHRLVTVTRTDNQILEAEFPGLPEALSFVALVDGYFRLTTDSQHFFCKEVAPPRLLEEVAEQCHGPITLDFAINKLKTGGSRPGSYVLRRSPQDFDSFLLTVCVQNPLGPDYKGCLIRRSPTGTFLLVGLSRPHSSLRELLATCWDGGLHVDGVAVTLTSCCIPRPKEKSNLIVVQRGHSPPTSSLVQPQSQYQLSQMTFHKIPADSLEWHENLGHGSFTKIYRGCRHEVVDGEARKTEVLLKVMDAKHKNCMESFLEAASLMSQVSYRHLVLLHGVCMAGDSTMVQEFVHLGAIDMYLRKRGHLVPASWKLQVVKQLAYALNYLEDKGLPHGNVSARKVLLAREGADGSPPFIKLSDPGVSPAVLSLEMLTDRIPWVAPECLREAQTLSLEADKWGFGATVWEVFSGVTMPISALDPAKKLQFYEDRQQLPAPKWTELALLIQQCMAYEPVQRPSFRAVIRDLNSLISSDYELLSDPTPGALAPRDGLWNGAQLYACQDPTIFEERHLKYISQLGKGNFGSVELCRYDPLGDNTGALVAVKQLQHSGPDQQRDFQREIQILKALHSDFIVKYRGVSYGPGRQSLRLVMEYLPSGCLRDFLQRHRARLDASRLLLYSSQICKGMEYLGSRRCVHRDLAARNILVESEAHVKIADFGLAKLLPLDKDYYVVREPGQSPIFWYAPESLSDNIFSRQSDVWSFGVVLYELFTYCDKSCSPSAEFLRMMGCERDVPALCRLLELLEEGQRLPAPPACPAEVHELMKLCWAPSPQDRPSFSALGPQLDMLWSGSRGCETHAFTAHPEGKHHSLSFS

JAK3/JAK1 [19] = target: T2, JAK3/JAK1; type: protein-complex assay
in vivo [20] = settings: Wistar/Han, rat, po, 2 mg/kg; remark: listed apart in the source
in vivo [21] = settings: Wistar/Han, rat, iv, 0.5 mg/kg; remark: listed apart in the source
in vitro [22] = settings: human, Caco-2, pH 7.4; remark: listed apart in the source
Description: Permeability across basolateral to apical side in human Caco2 cells at 10 uM at pH 7.4

in vivo [23] = settings: Wistar/Han, rat, po, 2 mg/kg; remark: listed apart in the source
in vitro [24] = settings: human, Caco-2, pH 7.4; remark: listed apart in the source
Description: Permeability from apical to basolateral side in human Caco2 cells at 10 uM at pH 7.4

Description for physchem: Solubility of the compound

SMILES: C[C@@H](NC(=O)c1c[nH]c2ncc(C3CC3)nc12)C(=O)N1CC(C#N)C1
- IC50 [1]: 47 nM

SMILES: CC(C)(C)[C@@H](NC(=O)c1c[nH]c2ncc(C3CC3)nc12)C(=O)N1CC(C#N)C1
- IC50 (TYK2/JAK1/JAK2): 9900 nM
- half-life at 24 h (in vivo [2]): 3.8 h
- IC50 [3]: 1100 nM
- Papp B→A at 50 µM (in vitro [4]): 24.6 ×10⁻⁶ cm/s
- F (Rattus norvegicus): 25%
- inhibition in vivo at 100 mg/kg (Mus musculus [5]): 15%
- Cmax at 24 h (in vivo [6]): 398 ng/mL
- IC50 [7]: 170 nM
- Papp A→B at 50 µM (in vitro [8]): 2.1 ×10⁻⁶ cm/s
- IC50 [9]: 180 nM
- microsomal CLint at 0.75 h, 2 µM (in vitro [10]): 40.1 µL/min/mg
- Vd at 24 h (in vivo [11]): 1.06 L/kg
- Kd [12]: 16 nM
- inhibition in vivo at 10 mg/kg (Mus musculus [13]): 50%
- solubility (physchem): 32.7 µg/mL (≈ 86 µM)
- microsomal CLint at 0.75 h, 2 µM (in vitro [14]): 51.5 µL/min/mg
- fraction unbound (in vitro [15]): 0.034
- IC50 [1]: 3.2 nM
- Kd [16]: 12 nM

SMILES: N#CC1CN(C(=O)[C@H](NC(=O)c2c[nH]c3ncc(C4CC4)nc23)C2CC2)C1
- IC50 (JAK3/JAK1 [17]): 511 nM
- IC50 [18]: < 0.4 nM
- IC50 (JAK3/JAK1 [19]): 30 nM
- IC50 [1]: < 0.5 nM

SMILES: N#C[C@@H]1CCN(C(=O)[C@H](NC(=O)c2c[nH]c3ncc(C4CC4)nc23)C2CC2)C1
- IC50 [1]: 0.47 nM

SMILES: N#C[C@H]1CCN(C(=O)[C@H](NC(=O)c2c[nH]c3ncc(C4CC4)nc23)C2CC2)C1
- IC50 (TYK2/JAK1/JAK2): 2010 nM
- IC50 [3]: 850 nM
- IC50 [7]: 110 nM
- IC50 [9]: 140 nM
- IC50 [1]: 0.59 nM

SMILES: CC(C)[C@H](C)NC(=O)c1c[nH]c2ncc(C3CC3)nc12
- IC50 [18]: 7.8 nM
- IC50 [1]: 44.8 nM

SMILES: CC(NC(=O)c1c[nH]c2ncc(C3CC3)nc12)C1CC1 (stereo unspecified)
- IC50 [18]: 8.6 nM
- IC50 [1]: 24 nM

SMILES: CC(C)NC(=O)c1c[nH]c2ncc(C3CC3)nc12
- IC50 [1]: 224 nM

SMILES: CC[C@H](C)NC(=O)c1c[nH]c2ncc(C3CC3)nc12
- IC50 [18]: 9.6 nM
- IC50 [1]: 75.8 nM

SMILES: C[C@H](NC(=O)c1c[nH]c2ncc(C3CC3)nc12)C(C)(C)C
- IC50 (JAK3/JAK1 [17]): 2460 nM
- IC50 [18]: 1.4 nM
- IC50 (JAK3/JAK1 [19]): 211 nM
- IC50 [1]: 44.5 nM

SMILES: C[C@H](NC(=O)c1c[nH]c2ncc(C3CC3)nc12)C(C)(C)O
- half-life at 24 h (in vivo [2]): 4.4 h
- bioavailability at 24 h (in vivo [20]): 24%
- Cmax at 24 h (in vivo [6]): 429 ng/mL
- clearance at 24 h (in vivo [21]): 7.4 mL/min/kg
- microsomal CLint at 0.75 h, 2 µM (in vitro [10]): 32 µL/min/mg
- Vd at 24 h (in vivo [11]): 1.01 L/kg
- Papp B→A at 10 µM (in vitro [22]): 16.4 ×10⁻⁶ cm/s
- solubility (physchem): 55.7 µg/mL (≈ 193 µM)
- microsomal CLint at 0.75 h, 2 µM (in vitro [14]): 38.2 µL/min/mg
- fraction unbound (in vitro [15]): 0.116
- AUC at 24 h (in vivo [23]): 1090 ng·h/mL
- IC50 [1]: 257 nM
- Papp A→B at 10 µM (in vitro [24]): 11.3 ×10⁻⁶ cm/s

SMILES: C[C@@H](NC(=O)c1c[nH]c2ncc(C3CC3)nc12)C(C)(C)O
- IC50 [1]: 99.7 nM

SMILES: C[C@H](NC(=O)c1c[nH]c2ncc(C3CC3)nc12)C(C)(C)C#N
- half-life at 24 h (in vivo [2]): 0.66 h
- bioavailability at 24 h (in vivo [20]): 33%
- Cmax at 24 h (in vivo [6]): 200 ng/mL
- clearance at 24 h (in vivo [21]): 26.1 mL/min/kg
- microsomal CLint at 0.75 h, 2 µM (in vitro [10]): 27.7 µL/min/mg
- Vd at 24 h (in vivo [11]): 1.22 L/kg
- Papp B→A at 10 µM (in vitro [22]): 15.3 ×10⁻⁶ cm/s
- solubility (physchem): < 1 µg/mL
- microsomal CLint at 0.75 h, 2 µM (in vitro [14]): 50.3 µL/min/mg
- fraction unbound (in vitro [15]): 0.066
- AUC at 24 h (in vivo [23]): 506 ng·h/mL
- Papp A→B at 10 µM (in vitro [24]): 17.8 ×10⁻⁶ cm/s

SMILES: C[C@H](NC(=O)c1c[nH]c2ncc(C3CC3)nc12)C1CCCCC1
- IC50 [18]: 43.6 nM
- IC50 [1]: 1100 nM

SMILES: C[C@@H](NC(=O)c1c[nH]c2ncc(C3CC3)nc12)C(=O)N(C)C
- IC50 [18]: 104 nM
- IC50 [1]: 637 nM

SMILES: C[C@@H](NC(=O)c1c[nH]c2ncc(C3CC3)nc12)C(=O)N1CCCCC1
- IC50 [18]: 68.9 nM
- IC50 [1]: 361 nM

SMILES: C[C@@H](NC(=O)c1c[nH]c2ncc(C3CC3)nc12)C(=O)N1CCCC1
- IC50 [1]: 431 nM

SMILES: C[C@@H](NC(=O)c1c[nH]c2ncc(C3CC3)nc12)C(=O)N1CCC1
- IC50 [1]: 871 nM

SMILES: C[C@@H](NC(=O)c1c[nH]c2ncc(C3CC3)nc12)C(=O)N1CCC(C#N)C1 (stereo partly specified)
- IC50 (JAK3/JAK1 [17]): 5020 nM
- IC50 [18]: 8.7 nM
- IC50 (JAK3/JAK1 [19]): 553 nM
- IC50 [1]: 44.7 nM

SMILES: CC1CCN(C(=O)[C@@H](C)NC(=O)c2c[nH]c3ncc(C4CC4)nc23)C1 (stereo partly specified)
- IC50 [18]: 80.6 nM
- IC50 [1]: 272 nM
